Assay results published in the NIST ThermoML archive (doi:10.1007/s10765-007-0223-x).
± gives the expanded uncertainty stated by the source.

Assay: xn = mol fraction of the nth substance listed
Conditions: 101 kPa, Liquid; for speed of sound: Single path-length method

CCc1ccccc1 [ethylbenzene] + COC(C)(C)C
Conditions	mass density [kg/m3]	speed of sound [m/s]
305.65 K, x2 = 0	855.837 ± 0.39	–
305.65 K, x2 = 0.046	850.573 ± 0.41	–
305.65 K, x2 = 0.106	843.52 ± 0.42	–
305.65 K, x2 = 0.212	831.061 ± 0.44	–
305.65 K, x2 = 0.299	820.447 ± 0.46	–
305.65 K, x2 = 0.402	807.578 ± 0.47	–
305.65 K, x2 = 0.503	796.166 ± 0.49	–
305.65 K, x2 = 0.6	782.111 ± 0.52	–
305.65 K, x2 = 0.701	768.689 ± 0.53	–
305.65 K, x2 = 0.822	752.062 ± 0.56	–
305.65 K, x2 = 0.899	741.065 ± 0.58	–
305.65 K, x2 = 0.948	733.91 ± 0.59	–
308.15 K, x2 = 0	853.622 ± 0.39	1276.8 ± 2.1
308.15 K, x2 = 0.046	848.347 ± 0.41	1264.9 ± 2.1
308.15 K, x2 = 0.106	841.274 ± 0.43	1249.5 ± 2.1
308.15 K, x2 = 0.212	828.779 ± 0.44	1221.9 ± 2.1
308.15 K, x2 = 0.299	818.132 ± 0.46	1198.5 ± 2.1
308.15 K, x2 = 0.402	805.218 ± 0.48	1169.2 ± 2.1
308.15 K, x2 = 0.503	793.77 ± 0.5	1144 ± 2.1
308.15 K, x2 = 0.6	779.66 ± 0.52	1112.2 ± 2.1
308.15 K, x2 = 0.701	766.192 ± 0.54	1082.7 ± 2.1
308.15 K, x2 = 0.822	749.497 ± 0.56	1045.6 ± 2.1
308.15 K, x2 = 0.899	738.451 ± 0.58	1021 ± 2.1
308.15 K, x2 = 0.948	731.264 ± 0.59	1005.2 ± 2.1
310.65 K, x2 = 0	851.407 ± 0.39	1266.5 ± 2.1
310.65 K, x2 = 0.046	846.119 ± 0.42	1254.8 ± 2.1
310.65 K, x2 = 0.106	839.024 ± 0.43	1239.2 ± 2.1
310.65 K, x2 = 0.212	826.493 ± 0.45	1211.5 ± 2.1
310.65 K, x2 = 0.299	815.815 ± 0.46	1188.1 ± 2.1
310.65 K, x2 = 0.402	802.853 ± 0.48	1158.6 ± 2.1
310.65 K, x2 = 0.503	791.367 ± 0.5	1133.2 ± 2.1
310.65 K, x2 = 0.6	777.204 ± 0.52	1101.4 ± 2.1
310.65 K, x2 = 0.701	763.689 ± 0.54	1071.8 ± 2.1
310.65 K, x2 = 0.822	746.926 ± 0.57	1034.6 ± 2.1
310.65 K, x2 = 0.899	735.825 ± 0.58	1009.8 ± 2.1
310.65 K, x2 = 0.948	728.607 ± 0.59	993.9 ± 2.1
313.15 K, x2 = 0	849.186 ± 0.4	1256.3 ± 2.1
313.15 K, x2 = 0.046	843.886 ± 0.42	1244.6 ± 2.1
313.15 K, x2 = 0.106	836.773 ± 0.43	1229 ± 2.1
313.15 K, x2 = 0.212	824.202 ± 0.45	1201 ± 2.1
313.15 K, x2 = 0.299	813.486 ± 0.47	1177.5 ± 2.1
313.15 K, x2 = 0.402	800.48 ± 0.48	1148 ± 2.1
313.15 K, x2 = 0.503	788.959 ± 0.5	1122.5 ± 2.1
313.15 K, x2 = 0.6	774.736 ± 0.53	1090.5 ± 2.1
313.15 K, x2 = 0.701	761.174 ± 0.55	1060.8 ± 2.1
313.15 K, x2 = 0.822	744.341 ± 0.57	1023.4 ± 2.1
313.15 K, x2 = 0.899	733.188 ± 0.59	998.53 ± 2.1
313.15 K, x2 = 0.948	725.934 ± 0.6	982.63 ± 2.1
315.65 K, x2 = 0	846.964 ± 0.4	1246.1 ± 2.1
315.65 K, x2 = 0.046	841.648 ± 0.42	1234.5 ± 2.1
315.65 K, x2 = 0.106	834.515 ± 0.44	1218.7 ± 2.1
315.65 K, x2 = 0.212	821.909 ± 0.45	1190.8 ± 2.1
315.65 K, x2 = 0.299	811.155 ± 0.47	1166.9 ± 2.1
315.65 K, x2 = 0.402	798.107 ± 0.49	1137.5 ± 2.1
315.65 K, x2 = 0.503	786.547 ± 0.51	1111.9 ± 2.1
315.65 K, x2 = 0.6	772.257 ± 0.53	1079.6 ± 2.1
315.65 K, x2 = 0.701	758.651 ± 0.55	1050 ± 2.1
315.65 K, x2 = 0.822	741.744 ± 0.57	1012.4 ± 2.1
315.65 K, x2 = 0.899	730.538 ± 0.59	987.36 ± 2.1
315.65 K, x2 = 0.948	723.249 ± 0.6	971.33 ± 2.1
318.15 K, x2 = 0	844.741 ± 0.4	1236.1 ± 2.1
318.15 K, x2 = 0.046	839.413 ± 0.43	1224.5 ± 2.1
318.15 K, x2 = 0.106	832.261 ± 0.44	1208.7 ± 2.1
318.15 K, x2 = 0.212	819.612 ± 0.46	1180.5 ± 2.1
318.15 K, x2 = 0.299	808.784 ± 0.47	1155.9 ± 2.1
318.15 K, x2 = 0.402	795.73 ± 0.49	1127 ± 2.1
318.15 K, x2 = 0.503	784.128 ± 0.51	1101.4 ± 2.1
318.15 K, x2 = 0.6	769.777 ± 0.53	1068.9 ± 2.1
318.15 K, x2 = 0.701	756.122 ± 0.55	1039.2 ± 2.1
318.15 K, x2 = 0.822	739.136 ± 0.58	1001.4 ± 2.1
318.15 K, x2 = 0.899	727.875 ± 0.6	976.23 ± 2.1
318.15 K, x2 = 0.948	720.551 ± 0.61	960.13 ± 2.1
320.65 K, x2 = 0	842.518 ± 0.41	1226.1 ± 2.1
320.65 K, x2 = 0.046	837.173 ± 0.43	1214.5 ± 2.1
320.65 K, x2 = 0.106	830.003 ± 0.44	1198.6 ± 2.1
320.65 K, x2 = 0.212	817.315 ± 0.46	1170.4 ± 2.1
320.65 K, x2 = 0.299	806.474 ± 0.48	1146 ± 2.1
320.65 K, x2 = 0.402	793.356 ± 0.49	1116.8 ± 2.1
320.65 K, x2 = 0.503	781.711 ± 0.52	1091 ± 2.1
320.65 K, x2 = 0.6	767.333 ± 0.54	1058.7 ± 2.1
320.65 K, x2 = 0.701	753.581 ± 0.56	1028.4 ± 2.1
320.65 K, x2 = 0.822	736.516 ± 0.58	990.46 ± 2.1
320.65 K, x2 = 0.899	725.199 ± 0.6	965.11 ± 2.1
320.65 K, x2 = 0.948	717.839 ± 0.61	948.99 ± 2.1
323.15 K, x2 = 0	840.306 ± 0.41	1216.3 ± 2.1
323.15 K, x2 = 0.046	834.949 ± 0.43	1204.7 ± 2.1
323.15 K, x2 = 0.106	827.754 ± 0.45	1188.8 ± 2.1
323.15 K, x2 = 0.212	815.028 ± 0.47	1160.5 ± 2.1
323.15 K, x2 = 0.299	804.174 ± 0.48	1136.3 ± 2.1
323.15 K, x2 = 0.402	791.012 ± 0.5	1106.9 ± 2.1
323.15 K, x2 = 0.503	779.302 ± 0.52	1080.8 ± 2.1
323.15 K, x2 = 0.6	764.898 ± 0.54	1048.8 ± 2.1
323.15 K, x2 = 0.701	751.042 ± 0.56	1017.8 ± 2.1
323.15 K, x2 = 0.822	733.902 ± 0.59	979.73 ± 2.1
323.15 K, x2 = 0.899	722.521 ± 0.6	954.17 ± 2.1
323.15 K, x2 = 0.948	715.125 ± 0.61	938 ± 2.1
